Measurements reported in US9687467B2, “Diagnosis and treatment of taxane-resistant cancers” (Children's Medical Center Corporation, priority 2011, dated 2017).

Legend:
[1] = test system: A549 cells; assay: cells; assay type: cell-based; details: Homo sapiens, A549, read-out: median LC50
Experimental: (§1) The paclitaxel-resistant cell lines MES-SA^DX5 and A549^TR were transfected with a scrambled non-targeting miRNA (control) and an miR-135a mimic (mimic), respectively. Cells were subsequently treated with 100 nM paclitaxel and cell viability was assessed using the MTT assay (FIGS. 2A, 2B). The percentage of apoptotic cells was assessed by Annexin V-staining and FACS analysis (FIGS. 2C, 2D). Values are presented as percent cell survival in paclitaxel-treated cells relative to untreated cells. *P<0.05, **P<0.001 as determined by Wilcoxon's rank sum test.
FIGS. 4A-4E are a series of micrographs and line graphs showing that miR-135a-mediated APC suppression contributes to paclitaxel resistance. […] Transfected A549 (FIG. 4B) and MES-SA (FIG. 4C) cells were treated with paclitaxel and viability was assessed using the MTT assay. […] (FIG. 4E) Both A549-shCON and -shAPC cells were treated with paclitaxel and cell viability was measured using the MTT assay. […]
(FIG. 7A). The parental A549 cells, a cell line that became refractory during in vivo treatment with paclitaxel (T20.2 round 1) and the same cell line established after yet another round of in vivo paclitaxel treatment (T20.2 reinjection) were treated with paclitaxel and cell viability was assessed using the MTT assay. […] (FIG. 7B) The expression of miR-135a was examined in these cells by qRT-PCR. *P<0.05 as determined by Wilcoxon's rank sum test. […]

[2] = test system: MES-SA^DX5 cells; assay: MTT cell viability assay, paclitaxel response after miRNA transfection; assay type: cell-based, human; details: cells transfected with scrambled non-targeting miRNA, 100 nM paclitaxel
Experimental: as §1
Cell growth inhibition was determined by a 3-(4,5-dimethylthiazol-2-yl)-2,5-diphenyltetrazolium (MTT) bromide assay. Briefly, ˜2.5×10^4 cells were plated in a 96-well plate and paclitaxel was added in appropriate concentrations 24 hours later. […] Absorbance was determined using a 96-well SpectraMax plate reader (Molecular Devices, Sunnyvale, Calif.) at 560 nm and 650 nm (background).
Double-stranded RNA oligos representing a mature sequence that mimics endogenous miR-135a, anti-miR-135a designed to inhibit endogenous miR-135a, and anti-miR negative control were all obtained from Ambion™ and were transfected into cell lines at ˜50% confluence at 30 nM concentration with siLentFect (Bio-Rad™). […] The next day, luciferase activity was measured using the Dual-Glo® Luciferase assay system (Promega™, Madison, Wis.). […]

CC(=O)O[C@H]1C(=O)[C@@]2(C)[C@H]([C@H](OC(=O)c3ccccc3)[C@]3(O)C[C@H](OC(=O)[C@H](O)[C@@H](NC(=O)c4ccccc4)c4ccccc4)C(C)=C1C3(C)C)[C@]1(OC(C)=O)CO[C@@H]1C[C@@H]2O [paclitaxel]
CC50 [1]: 1.14 nM | cell survival in paclitaxel-treated cells relative to untreated cells [2]: 102.2%
